Measured values from patent US10112943B2, “Substituted imidazoles as gamma secretase modulators” (Janssen Pharmaceutica NV, priority 2012, dated 2018).

Tests used:
[1] = target: T1, γ-secretase (Homo sapiens, UniProt P49768); assay: Screening for γ-secretase-modulating activity: Aβ42 in cell supernatant (Alphalisa sandwich immuno-assay); format: cell-based; conditions: SKNBE2 human neuroblastoma cells carrying hAPP 695-wild type, overnight incubation
T1 construct: endogenous in cells; host or cells: SKNBE2 human neuroblastoma cells carrying hAPP 695 wild type
Protocol: (§1) A) Screening of the Compounds of the Invention for γ-Secretase-Modulating Activity
(§2) Screening was carried out using SKNBE2 human neuroblastoma cells carrying the hAPP 695-wild type, grown in Dulbecco's Modified Eagle's Medium/Nutrient mixture F-12 (DMEM/NUT-mix F-12) (HAM) provided by Invitrogen (cat no. 10371-029) containing 5% Serum/Fe supplemented with 1% non-essential amino acids, 1-glutamine 2 mM, Hepes 15 mM, penicillin 50 U/ml (units/ml) and streptomycin 50 μg/ml. Cells were grown to near confluency.
(§3) The screening was performed using a modification of the assay as described in Citron et al (1997) Nature Medicine 3: 67. Briefly, cells were plated in a 384-well plate at 10^4 cells/well in Ultraculture (Lonza, BE12-725F) supplemented with 1% glutamine (Invitrogen, 25030-024), 1% non-essential amino acid (NEAA), penicillin 50 U/ml en streptomycin 50 μg/ml in the presence of test compound at different test concentrations. The cell/compound mixture was incubated overnight at 37° C., 5% CO2. The next day the media were assayed by two sandwich immuno-assays, for Aβ42 and Aβtotal.
(§4) Aβtotal and Aβ42 concentrations were quantified in the cell supernatant using the Aphalisa technology (Perkin Elmer). Alphalisa is a sandwich assay using biotinylated antibody attached to streptavidin coated donorbeads and antibody conjugated to acceptor beads. In the presence of antigen, the beads come into close proximity. The excitation of the donor beads provokes the release of singlet oxygen molecules that trigger a cascade of energy transfer in the acceptor beads, resulting in light emission. To quantify the amount of Aβ42 in the cell supernatant, monoclonal antibody specific to the C-terminus of Aβ42 (JRF/cAβ42/26) was coupled to the receptor beads and biotinylated antibody specific to the N-terminus of Aβ (JRF/AβN/25) was used to react with the donor beads. To quantify the amount of Aβtotal in the cell supernatant, monoclonal antibody specific to the N-terminus of Aβ (JRF/AβN/25) was coupled to the receptor beads and biotinylated antibody specific to the mid region of Aβ (biotinylated 4G8) was used to react with the donor beads.
To obtain the values reported in Table 3, the data are calculated as percentage of the maximum amount of amyloid Beta 42 measured in the absence of the test compound.
(§5) The sigmoidal dose response curves were analyzed using non-linear regression analysis with percentage of the control plotted against the log concentration of the compound. A 4-parameter equation was used to determine the IC50.

[2] = target: T1, γ-secretase; assay: Screening for γ-secretase-modulating activity: Aβtotal in cell supernatant (Alphalisa sandwich immuno-assay); format: cell-based; conditions: SKNBE2 human neuroblastoma cells carrying hAPP 695-wild type, overnight incubation
Protocol: as §1, §2, §3, §4, §5

Structure (SMILES): Cc1cn(-c2ccc3n(c2=O)CC2CCC(Cc4cc(C(F)(F)F)cc(C(F)(F)F)c4)N2C3=O)cn1 (stereo not drawn) [Compound 1, 3-[[3,5-bis(trifluoromethyl)phenyl]methyl]-2,3,11,11a-tetrahydro-8-(4-methyl-1H-imidazol-1-yl)-1H-pyrido[1,2-a]pyrrolo[1,2-d]pyrazine-5,9-dione]
- melting point: 234.89 °C
- IC50 [1]: 0.16 µM
- IC50 [2]: > 10 µM

Structure (SMILES): Cc1cn(-c2ccc3n(c2=O)C[C@@H]2CC[C@@H](Cc4cc(C(F)(F)F)cc(C(F)(F)F)c4)N2C3=O)cn1 (single isomer, unassigned) [Compound 2, 3-[[3,5-bis(trifluoromethyl)phenyl]methyl]-2,3,11,11a-tetrahydro-8-(4-methyl-1H-imidazol-1-yl)-1H-pyrido[1,2-a]pyrrolo[1,2-d]pyrazine-5,9-dione ((3R, 11aR) or (3S, 11aS))]
- melting point: 255.25 °C
- IC50 [1]: > 10 µM
- IC50 [2]: > 10 µM

Structure (SMILES): Cc1cn(-c2ccc3n(c2=O)C[C@@H]2CCC[C@H](Cc4cc(C(F)(F)F)cc(C(F)(F)F)c4)N2C3=O)cn1 (single isomer, unassigned) [Compound 9, 10-[[3,5-bis(trifluoromethyl)phenyl]methyl]-6,6a,7,8,9,10-hexahydro-3-(4-methyl-1H-imidazol-1-yl)-dipyrido[1,2-a:1′,2-d]pyrazine-4,12-dione ((6aR, 10S) or (6aS, 10R))]
- melting point: 246.53 °C
- IC50 [1]: 0.29 µM
- IC50 [2]: > 10 µM

Structure (SMILES): Cc1cn(-c2ccc3n(c2=O)C[C@H]2CC[C@H](c4cc(C(F)(F)F)cc(C(F)(F)F)c4)N2C3=O)cn1 [Compound 15, (3R,11aR)-3-[3,5-bis(trifluoromethyl)phenyl]-2,3,11,11a-tetrahydro-8-(4-methyl-1H-imidazol-1-yl)-1H-pyrido[1,2-a]pyrrolo[1,2-d]pyrazine-5,9-dione]
- IC50 [1]: 4.57 µM
- IC50 [2]: > 10 µM

Structure (SMILES): Cc1cn(-c2ccc3n(c2=O)C[C@@H]2CCC[C@@H](Cc4cc(C(F)(F)F)cc(C(F)(F)F)c4)N2C3=O)cn1 (single isomer, unassigned) [Compound 10, 10-[[3,5-bis(trifluoromethyl)phenyl]methyl]-6,6a,7,8,9,10-hexahydro-3-(4-methyl-1H-imidazol-1-yl)-dipyrido[1,2-a:1′,2-d]pyrazine-4,12-dione ((6aS, 10S) or (6aR, 10R))]
- melting point: 231.74 °C
- IC50 [1]: 0.13 µM
- IC50 [2]: 3.16 µM

Structure (SMILES): Cc1cn(-c2ccc3n(c2=O)C[C@@H]2CCC[C@H](c4cc(C(F)(F)F)cc(C(F)(F)F)c4)N2C3=O)cn1 (single isomer, unassigned) [Compound 12, 10-[3,5-bis(trifluoromethyl)phenyl]-6,6a,7,8,9,10-hexahydro-3-(4-methyl-1H-imidazol-1-yl)-dipyrido[1,2-a: 1′,2′-d]pyrazine-4,12-dione ((6aR, 10S) or (6aS, 10R))]
- IC50 [1]: 0.24 µM
- IC50 [2]: > 10 µM

Structure (SMILES): Cc1cn(-c2ccc3n(c2=O)C[C@H]2CC[C@@H](c4cc(C(F)(F)F)cc(C(F)(F)F)c4)N2C3=O)cn1 [Compound 19, (3S,11aR)-3-[3,5-bis(trifluoromethyl)phenyl]-2,3,11,11a-tetrahydro-8-(4-methyl-1H-imidazol-1-yl)-1H-pyrido[1,2-a]pyrrolo[1,2-d]pyrazine-5,9-dione]
- IC50 [1]: 0.72 µM
- IC50 [2]: > 10 µM

Structure (SMILES): Cc1cn(-c2ccc3n(c2=O)C[C@H]2CC[C@@H](c4ccc(Cl)c(Cl)c4)N2C3=O)cn1 [Compound 21, (3S,11aR)-3-(3,4-dichlorophenyl)-2,3,11,11a-tetrahydro-8-(4-methyl-1H-imidazol-1-yl)-1H-pyrido[1,2-a]pyrrolo[1,2-d]pyrazine-5,9-dione]
- IC50 [1]: 1.32 µM
- IC50 [2]: > 15.1 µM

Structure (SMILES): Cc1cn(-c2ccc3n(c2=O)C[C@H]2CC[C@H](c4ccc(Cl)c(Cl)c4)N2C3=O)cn1 [Compound 20, (3R,11aR)-3-(3,4-dichlorophenyl)-2,3,11,11a-tetrahydro-8-(4-methyl-1H-imidazol-1-yl)-1H-pyrido[1,2-a]pyrrolo[1,2-d]pyrazine-5,9-dione]
- IC50 [1]: 4.47 µM
- IC50 [2]: 9.33 µM

Structure (SMILES): Cc1cn(-c2ccc3n(c2=O)C[C@@H]2CC[C@H](c4cc(C(F)(F)F)cc(C(F)(F)F)c4)N2C3=O)cn1 [Compound 18, (3R,11aS)-3-[3,5-bis(trifluoromethyl)phenyl]-2,3,11,11a-tetrahydro-8-(4-methyl-1H-imidazol-1-yl)-1H-pyrido[1,2-a]pyrrolo[1,2-d]pyrazine-5,9-dione]
- IC50 [1]: > 10 µM
- IC50 [2]: > 10 µM

Structure (SMILES): Cc1cn(-c2ccc3n(c2=O)C[C@@H]2CCC[C@@H](Cc4cc(C(F)(F)F)cc(C(F)(F)F)c4)N2C3=O)cn1 (single isomer, unassigned) [Compound 7, 10-[[3,5-bis(trifluoromethyl)phenyl]methyl]-6,6a,7,8,9,10-hexahydro-3-(4-methyl-1H-imidazol-1-yl)-dipyrido[1,2-a:1′,2′-d]pyrazine-4,12-dione ((6aR, 10R) or (6aS, 10S))]
- melting point: 231.07 °C
- IC50 [1]: 1.12 µM
- IC50 [2]: > 10 µM

Structure (SMILES): Cc1cn(-c2ccc3n(c2=O)C[C@@H]2CC[C@H](Cc4cc(C(F)(F)F)cc(C(F)(F)F)c4)N2C3=O)cn1 (single isomer, unassigned) [Compound 3, 3-[[3,5-bis(trifluoromethyl)phenyl]methyl]-2,3,11,11a-tetrahydro-8-(4-methyl-1H-imidazol-1-yl)-1H-pyrido[1,2-a]pyrrolo[1,2-d]pyrazine-5,9-dione ((3S, 11aR) or (3R, 11aS))]
- melting point: 241.17 °C
- IC50 [1]: 0.42 µM
- IC50 [2]: > 10 µM

Structure (SMILES): Cc1cn(-c2ccc3n(c2=O)C[C@@H]2CCC[C@H](Cc4cc(C(F)(F)F)cc(C(F)(F)F)c4)N2C3=O)cn1 (single isomer, unassigned) [Compound 8, 10-[[3,5-bis(trifluoromethyl)phenyl]methyl]-6,6a,7,8,9,10-hexahydro-3-(4-methyl-1H-imidazol-1-yl)-dipyrido[1,2-a:1′,2-d]pyrazine-4,12-dione ((6aS, 10R) or (6aR, 10S))]
- melting point: 247.06 °C
- IC50 [1]: 0.11 µM
- IC50 [2]: > 10 µM

Structure (SMILES): Cc1cn(-c2ccc3n(c2=O)C[C@@H]2CCC[C@H](c4cc(C(F)(F)F)cc(C(F)(F)F)c4)N2C3=O)cn1 (single isomer, unassigned) [Compound 13, 10-[3,5-bis(trifluoromethyl)phenyl]-6,6a,7,8,9,10-hexahydro-3-(4-methyl-1H-imidazol-1-yl)-dipyrido[1,2-a: 1′,2′-d]pyrazine-4,12-dione ((6aS, 10R) or (6aR, 10S)]
- IC50 [1]: > 10 µM

Structure (SMILES): Cc1cn(-c2ccc3n(c2=O)C[C@@H]2CC[C@H](Cc4cc(C(F)(F)F)cc(C(F)(F)F)c4)N2C3=O)cn1 (single isomer, unassigned) [Compound 5, 3-[[3,5-bis(trifluoromethyl)phenyl]methyl]-2,3,11,11a-tetrahydro-8-(4-methyl-1H-imidazol-1-yl)-1H-pyrido[1,2-a]pyrrolo[1,2-d]pyrazine-5,9-dione ((3R, 11aS) or (3S, 11aR))]
- melting point: 238.34 °C
- IC50 [1]: 0.98 µM
- IC50 [2]: > 10 µM

Structure (SMILES): Cc1cn(-c2ccc3n(c2=O)C[C@@H]2CC[C@@H](c4cc(C(F)(F)F)cc(C(F)(F)F)c4)N2C3=O)cn1 [Compound 16, (3S,11aS)-3-[3,5-bis(trifluoromethyl)phenyl]-2,3,11,11a-tetrahydro-8-(4-methyl-1H-imidazol-1-yl)-1H-pyrido[1,2-a]pyrrolo[1,2-d]pyrazine-5,9-dione]
- IC50 [1]: 0.19 µM
- IC50 [2]: > 10 µM
